From PubChem BioAssay (NCI) come the findings set out here.

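In this assay, cells in 96-well plates receive the compound at five concentrations for 48 hours. Endpoints are linearly interpolated between the surrounding concentrations. Here, GI50 denotes the concentration required for 50% inhibition of growth. TGI: total growth inhibition.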 Bounds are passed on as bounds.

What all share (experiment): growth of human tumour cells (NCI), 48 h
Assay [1] relates to SNB-19 CNS.
Assay [2] has as its system UACC-257 melanoma.
For assay [3], the system named is UO-31 renal.
The test system of assay [4] is A498 renal.
In assay [5] the test system is HCT-116 colon.
Assay [6] relates to MOLT-4 leukemia.
Assay [7] relates to NCI-H226 lung.
In assay [8] the test system is NCI-H522 lung.
For assay [9], the system named is MCF7 breast.

On to `CC1C[C@H](OC(N)=O)C(C)CC1=O` (stereo not given in full), for which the TGI in assay [1], in [2], in [3], in assay [4], in assay [5] and in assay [6] was > 100 µM in each case.

Take `COC1(OC)CC2C=C(S(=O)(=O)c3ccccc3)C1N(Cc1ccccc1)C2=O` (stereo not given): the TGI in assay [7] was 75.9 µM; in assay [1] it was > 100 µM; in assay [8], 33.9 µM; in assay [2] it was > 100 µM; in assay [3], > 100 µM; in [4], 57.1 µM. Moreover, the TGI is 30 µM in assay [5] and > 100 µM in assay [6].

As for `CC(C)c1ccccc1NC(=O)C(=O)Cc1nc2ccccc2s1`, the TGI in assay [7], in assay [1], in assay [8], in [2], in assay [3] and in assay [4] was > 100 µM each time. Moreover, the TGI in [5] and in [6] was > 100 µM in each case.

Take `Brc1ccc(-c2nnc(-c3nn(-c4ccccc4)c4nc5ccccc5nc34)o2)cc1`: the TGI in assay [7], in [1], in assay [8], in assay [2], in assay [3] and in assay [5] was > 100 µM throughout. Moreover, the TGI in [6] was > 100 µM.

With `Cc1ccc(NC(=O)c2cccc([N+](=O)[O-])c2O)c([N+](=O)[O-])c1`, the TGI in assay [7] is 8.4 µM; in assay [1], 82.9 µM; in assay [8], 29.5 µM; in assay [2] it was 33.4 µM; in assay [3], 45.4 µM; in [4], 31.5 µM. Also, the TGI in [5] is 30.3 µM.

`COc1ccc(/C(Cl)=C(\C=O)c2ccc([N+](=O)[O-])cc2)cc1OC`: the TGI in assay [7] was > 54.8 µM; in assay [1], > 100 µM; in assay [8], > 35.8 µM; in [2], 29.7 µM; in assay [3], 28.9 µM; in assay [4], > 54.4 µM. Moreover, the values for the TGI in assay [5], in assay [9] and in [6] were 24.9 µM, 36.8 µM and > 27.4 µM, respectively.

Consider `ClC1=C(Cl)C(Cl)=C(Cl)C1=C/C=C/c1ccccc1`, for which the GI50 in assay [7] was 0.236 µM; in [1], 0.59 µM; in assay [8], 0.216 µM; in assay [2], 0.184 µM; in assay [3], 0.201 µM; in assay [4], 0.59 µM. The values for the GI50 in [5], in [9] and in [6] were 0.213 µM, 0.139 µM and 0.335 µM, respectively. The TGI in assay [7] was 0.653 µM; in assay [1] it was 2.44 µM; in assay [8], 0.562 µM; in assay [2], 0.41 µM; in assay [3] it was 0.756 µM; in [4], 1.22 µM. Besides, the TGI is 0.457 µM in [5] and 0.664 µM in [9].

For the compound `O=C(CC1(O)C(=O)Nc2ccccc21)c1ccccc1Cl` (stereo not given), the TGI in [7], in assay [1], in [8], in assay [2], in assay [3] and in assay [4] was > 100 µM in each case. Besides, the TGI in assay [5] and in assay [6] was > 100 µM each time.

`CCOC(=O)C(=O)Nc1ccc(C)cc1C`: the TGI in assay [7], in assay [1], in [8], in assay [2], in assay [3] and in [5] was > 100 µM each time. Besides, the TGI in assay [6] was > 100 µM.

In the case of `CCn1cc(/C=C/C(C)c2cn(CC)c(=O)[nH]c2=O)c(=O)[nH]c1=O` (stereo not given), the TGI in assay [1], in assay [8], in assay [2], in assay [3] and in [6] was > 100 µM in each case.

For `CC1=CC(=O)CCC2(C)C1CC[C@@H]2OC=O` (stereo not given in full), the TGI in [7], in [1], in [8], in assay [2], in [3] and in assay [5] was > 100 µM in each case. For the same compound, the TGI in assay [6] is > 100 µM.

In the case of `N/N=C1\C(=O)N(C2CCCCC2)C(=O)C1C(=O)NC1CCCCC1` (stereo not given), the TGI in assay [7], in assay [1], in [8], in [2], in [3] and in assay [4] was > 100 µM in each case. The TGI in [5] and in assay [6] was > 100 µM each time.

Turning to `CCOC(=O)N1CCc2cc(OC)c(OC)c3c2C1CC3=O` (stereo not given), the TGI in assay [1], in assay [8], in [2], in assay [3], in assay [4] and in assay [5] was > 100 µM throughout. The TGI in assay [6] is > 100 µM.

Turning to `COc1ccc(/C(=N/NC(=O)NN)C(c2ccc(OC)cc2)C2(O)CNc3c(Cl)cc(Cl)cc32)cc1` (stereo not given), the TGI in assay [7], in assay [1], in assay [8], in [2], in assay [3] and in [4] was > 100 µM in each case. For the same compound, the TGI in assay [5] and in [6] was > 100 µM each time.

Turning to `COc1ccc(C2=NNC(=O)OC2c2ccccc2)cc1` (stereo not given), the TGI in [7], in assay [1], in assay [2], in [3], in [4] and in assay [5] was > 100 µM in each case. The TGI in assay [6] is > 100 µM.

Regarding `Cc1cc2c(=O)n(-c3ccc(F)cc3)c(C)nc2c(C(=O)O)c1C`, the TGI in [7], in [2], in assay [3], in [4], in [5] and in assay [6] was > 100 µM in each case.

Turning to `CC(C)(C)[Si](C)(C)OCC1OC(n2cnc3c(NC(=O)c4ccccc4)ncnc32)CC1O` (stereo not given), the TGI was 66.5 µM in assay [7]; 74.3 µM in [1]; 37.7 µM in assay [8]; > 100 µM in assay [2]; 2.96 µM in assay [3]; 60.5 µM in assay [4]. In addition, the values for the TGI in [5], in [9] and in assay [6] were 70.5 µM, > 100 µM and 49.9 µM, respectively.

As to `O=C(CO)CC(=O)C(=O)Nc1nc([N+](=O)[O-])cs1`, the TGI in assay [7], in [1], in [8], in assay [2], in assay [3] and in assay [4] was > 100 µM each time. The TGI in assay [5] and in assay [6] was > 100 µM each time.

For `Cc1cc(N(CCC#N)S(C)(=O)=O)ccc1C=O`, the TGI in assay [7], in assay [1], in assay [8], in assay [2], in [3] and in assay [4] was > 100 µM throughout. Moreover, the TGI in assay [5] and in [6] was > 100 µM throughout.

Consider `C=C/C=C(\NC(=O)C(Cl)(Cl)Cl)[Si](C)(C)C`, for which the TGI in assay [7], in assay [1], in [8], in assay [2], in [3] and in assay [4] was > 100 µM in each case. Also, the TGI in [5] and in assay [6] was > 100 µM in each case.

Take `COc1ccc2oc3c4c2c1CCC4CCC3=O` (stereo not given): the TGI in [1] was > 100 µM; in [8] it was > 100 µM; in assay [2], 31.2 µM; in assay [3], 99.5 µM; in [4], > 100 µM; in [6], > 100 µM.

In the case of `Cc1ccc(-c2nc(SCC(=O)O)n[nH]2)cc1`, the TGI in [7], in assay [1], in assay [8], in [2], in assay [3] and in assay [4] was > 100 µM throughout. The TGI in assay [5] and in assay [6] was > 100 µM each time.

Regarding `CCC[CH2][Sn]([CH2]CCC)([O]C(=O)c1cc(F)cc(F)c1)[O]C(=O)c1cc(F)cc(F)c1`, the GI50 in assay [7] is 1.34 µM; in assay [1], 1.5 µM; in [8] it was 0.137 µM; in assay [2], 1.09 µM; in assay [3], 1.44 µM; in assay [4], 1.49 µM. For the same compound, the GI50 in [5] is 1.27 µM; in [6] it was 0.282 µM. The TGI in assay [7] is 2.65 µM; in assay [1], 2.83 µM; in assay [8] it was 0.269 µM; in [2], 2.28 µM; in [3] it was 2.75 µM; in [4] it was 2.83 µM. Also, the TGI in assay [5] was 2.54 µM; in assay [6], 1.73 µM.

Consider `N#CC(C(=O)/C(=N\Nc1nc(=S)[nH]n1N)C(C#N)c1ccc(Cl)cc1)c1ccc(Cl)cc1` (stereo not given), for which the TGI in assay [7], in assay [1], in assay [2], in assay [3], in [4] and in assay [5] was > 100 µM each time.

With `COC1=CC(O)(CC(N)=O)c2ccccc2C1=O` (stereo not given), the TGI in [7], in [1], in assay [8], in assay [2], in [3] and in assay [4] was > 100 µM throughout. Also, the TGI in assay [5] and in assay [6] was > 100 µM in each case.

As to `Cc1ccc(C2NC(=S)NC3=C2CCOc2c3ccc3ccccc23)cc1` (stereo not given), the GI50 in [7], in assay [1], in assay [8], in assay [2], in [3] and in assay [5] was > 100 µM each time. Besides, the GI50 was 32.4 µM in assay [9] and 7.97 µM in assay [6]. Further, the TGI in assay [7], in [1], in [8], in assay [2], in assay [3] and in assay [5] was > 100 µM throughout. The TGI in [9] and in assay [6] was > 100 µM throughout.

Turning to `Cn1c2c(c3ccccc31)C1CCCCC1C1C(=O)NC(=O)C21` (stereo not given), the TGI in assay [7] was > 100 µM; in assay [1], > 100 µM; in assay [3], > 100 µM; in assay [4], > 100 µM; in assay [6], 67.5 µM.

For the compound `CN(C)c1ccc(N=Cc2c([O-])ccc3ccccc23)cc1.[C-]#[O+].[C-]#[O+].[Ir]`, the GI50 in [7] was 15.2 µM; in [1], 24.8 µM; in [8], 5.7 µM; in [2], 16.3 µM; in assay [3], 15.6 µM; in assay [4], 22.1 µM. Besides, the GI50 in assay [5] was 17.7 µM; in [6], 15.4 µM. Further, the TGI in assay [7] came out at 33.1 µM; in assay [1], 64.3 µM; in assay [8], 18.6 µM; in [2], 37.1 µM; in [3], 36.4 µM; in assay [4], 51.5 µM. Also, the values for the TGI in [5] and in [6] were 32.1 µM and 95 µM, respectively.

Consider `O=S(O)CCCCCSSCCCCSSCCCCCS(=O)O`, for which the TGI in assay [1], in [8], in [2], in assay [3], in assay [4] and in assay [6] was > 100 µM each time.

For the compound `COc1cc2c(cc1OC)-c1cc3cc(OC)c(OC)cc3n1CC2`, the TGI in assay [7] was 73.5 µM; in assay [1], 95.8 µM; in assay [8], > 100 µM; in assay [2] it was > 100 µM; in [3] it was > 100 µM; in assay [4], 50.6 µM. The TGI in assay [5] and in assay [6] was > 100 µM in each case.

Take `C[C@]12CCC[C@H](Cl)C1(O)C[C@H](C(=O)O)CC2` (stereo not given in full): the TGI in [7], in assay [1], in assay [8], in assay [2], in assay [3] and in assay [4] was > 100 µM throughout. For the same compound, the TGI in [5] and in assay [6] was > 100 µM each time.

Take `COc1ccc(/C=C2\CCCCC2=O)cc1`: the TGI in [3], in [4], in assay [5] and in [6] was > 100 µM each time.
